Assay results from publication PMC4394048 (Molecular cancer therapeutics, 2015).

B1: Oatp1b2 (Rattus norvegicus) (protein)
chain: MDHTQQSRKAAEAQPSRSKQTRFCDGFKLFLAALSFSYICKALGGVVMKSSITQIERRFDIPSSISGLIDGGFEIGNLLVIVFVSYFGSKLHRPKLIGIGCFIMGIGSILTALPHFFMGYYKYAKENDIGSLGNSTLTCFINQMTSPTGPSPEIVEKGCEKGLKSHMWIYVLMGNMLRGIGETPIVPLGISYLDDFAKEGHTSMHLGTLHTIAMIGPILGFIMSSVFAKIYVDVGYVDLNSVRITPNDARWVGAWWLSFIVNGLLCITSSIPFFFLPKIPKRSQEERKNSVSLHAPKTDEEKKHMTNLTKQEEQDPSNMTGFLRSLRSILTNEIYVIFLILTLLQVSGFIGSFTYLFKFIEQQFGRTASQANFLLGIITIPTMATAMFLGGYIVKKFKLTSVGIAKFVFFTSSVAYAFQFLYFPLLCENKPFAGLTLTYDGMNPVDSHIDVPLSYCNSDCSCDKNQWEPICGENGVTYISPCLAGCKSFRGDKKPNNTEFYDCSCISNSGNNSAHLGECPRYKCKTNYYFYIILQVTVSFFTAMGSPSLILILMKSVQPELKSLAMGFHSLIIRALGGILAPIYYGAFIDRTCIKWSVTSCGKRGACRLYNSRLFGFSYLGLNLALKTPPLFLYVVLIYFTKRKYKRNDNKTLENGRQFTDEGNPDSVNKNGYYCVPYDEQSNETPL

Columns and labels:
[1] = Mdr1a/1b−/− mice, intravenous administration; cited from earlier work
[2] = molecular target: T1, OATP1B3 (Homo sapiens, UniProt Q9NPD5); assay: in vitro
T1 sequence (Q9NPD5 whole entry): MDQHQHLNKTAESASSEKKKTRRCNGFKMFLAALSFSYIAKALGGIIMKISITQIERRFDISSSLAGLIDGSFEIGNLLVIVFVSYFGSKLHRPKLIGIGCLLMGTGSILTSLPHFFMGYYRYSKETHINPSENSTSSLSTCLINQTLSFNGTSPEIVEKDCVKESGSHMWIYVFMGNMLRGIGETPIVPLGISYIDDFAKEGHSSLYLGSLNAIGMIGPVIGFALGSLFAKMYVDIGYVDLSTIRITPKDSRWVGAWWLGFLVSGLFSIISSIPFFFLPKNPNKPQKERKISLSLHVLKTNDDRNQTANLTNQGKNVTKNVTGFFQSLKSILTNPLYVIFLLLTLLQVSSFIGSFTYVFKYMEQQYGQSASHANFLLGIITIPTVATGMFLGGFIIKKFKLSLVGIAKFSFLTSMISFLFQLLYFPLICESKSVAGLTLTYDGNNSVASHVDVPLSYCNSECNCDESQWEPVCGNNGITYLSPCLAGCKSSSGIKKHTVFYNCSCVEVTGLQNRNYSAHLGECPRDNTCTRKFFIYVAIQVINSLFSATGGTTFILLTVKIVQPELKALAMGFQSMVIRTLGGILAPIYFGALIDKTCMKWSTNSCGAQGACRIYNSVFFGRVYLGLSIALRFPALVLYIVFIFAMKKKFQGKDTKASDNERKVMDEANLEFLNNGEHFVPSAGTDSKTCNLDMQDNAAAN

[3] = Docetaxel distribution in Slco1b2−/− and wild-type mice; conditions: for mean plasma clearance ± S.D.: dose/AUC
[4] = molecular target: MDR1 (Homo sapiens, UniProt P08183); conditions: MDCKII-MDR1 versus MDCKII-Co cells over time; 0.1 μM; p < 0.05
Chain of MDR1 (P08183 whole entry): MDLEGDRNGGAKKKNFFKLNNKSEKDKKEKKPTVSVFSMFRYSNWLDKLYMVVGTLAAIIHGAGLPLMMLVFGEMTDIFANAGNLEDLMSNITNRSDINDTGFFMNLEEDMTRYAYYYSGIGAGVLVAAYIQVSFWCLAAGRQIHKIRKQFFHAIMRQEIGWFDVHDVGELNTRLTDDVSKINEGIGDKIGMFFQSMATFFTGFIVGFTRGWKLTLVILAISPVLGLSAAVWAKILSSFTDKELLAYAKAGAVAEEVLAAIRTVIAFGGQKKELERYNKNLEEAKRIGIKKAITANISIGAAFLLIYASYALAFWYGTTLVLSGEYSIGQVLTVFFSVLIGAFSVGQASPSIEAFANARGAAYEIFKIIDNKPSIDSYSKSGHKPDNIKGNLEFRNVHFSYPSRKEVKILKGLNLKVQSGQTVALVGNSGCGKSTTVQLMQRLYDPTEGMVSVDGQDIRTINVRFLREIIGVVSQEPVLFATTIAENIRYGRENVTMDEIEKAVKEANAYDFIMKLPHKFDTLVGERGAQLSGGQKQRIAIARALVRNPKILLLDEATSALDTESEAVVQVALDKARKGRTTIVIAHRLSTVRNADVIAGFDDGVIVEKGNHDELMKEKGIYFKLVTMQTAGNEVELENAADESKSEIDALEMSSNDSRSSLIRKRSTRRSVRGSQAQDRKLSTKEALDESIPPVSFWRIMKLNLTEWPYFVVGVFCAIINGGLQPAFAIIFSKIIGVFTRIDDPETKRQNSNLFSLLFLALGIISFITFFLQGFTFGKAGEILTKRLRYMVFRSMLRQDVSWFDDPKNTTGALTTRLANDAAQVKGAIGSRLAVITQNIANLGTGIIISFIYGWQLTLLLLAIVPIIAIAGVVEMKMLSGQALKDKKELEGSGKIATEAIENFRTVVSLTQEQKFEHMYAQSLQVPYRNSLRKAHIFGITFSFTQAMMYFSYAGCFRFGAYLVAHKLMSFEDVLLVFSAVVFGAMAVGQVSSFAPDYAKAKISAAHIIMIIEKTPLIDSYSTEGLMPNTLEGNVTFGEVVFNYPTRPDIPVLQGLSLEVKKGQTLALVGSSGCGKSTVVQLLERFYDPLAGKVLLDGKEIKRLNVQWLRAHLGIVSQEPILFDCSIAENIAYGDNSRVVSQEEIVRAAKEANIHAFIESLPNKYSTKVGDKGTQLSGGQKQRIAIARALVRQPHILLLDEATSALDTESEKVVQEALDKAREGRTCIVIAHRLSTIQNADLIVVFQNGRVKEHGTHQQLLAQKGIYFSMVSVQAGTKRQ

[5] = cited from earlier work
[6] = system: OATP1B3/MDR1; conditions: MDCKII-OATP1B3/MDR1 versus MDCKII-OATP1B3 cells, p < 0.01
[7] = system: OATP1B1/MDR1; conditions: MDCKII-OATP1B1/MDR1 versus MDCKII-OATP1B1 cells, p < 0.001
[8] = molecular target: T1, OATP1B3
[9] = substrate: CC(=O)O[C@@]12CO[C@@H]1C[C@H](O)[C@@]1(C)C(=O)[C@H](O)C3=C(C)[C@@H](OC(=O)[C@H](O)[C@@H](NC(=O)OC(C)(C)C)c4ccccc4)C[C@@](O)([C@@H](OC(=O)c4ccccc4)[C@H]21)C3(C)C; assay: cells, lysate or membranes named; conditions: other: HeLa cells; 0.1-100 μM; Michaelis-Menten fit; 37.0 °C

Row | Molecule | AUC of docetaxel in knockout versus wild-type mice [1] | Km [2] [µM] | plasma clearance in Slco1b2−/− mice, lower than wild-type mice ([3]; 1 mg/kg intravenous, p < 0.05) [%] | mean plasma clearance ± S.D. ([3]; Slco1b2−/− mice, 1 mg/kg intravenous) [mL/min/kg] | docetaxel liver concentrations ([3]; Slco1b2−/− versus wild-type mice, 30 min after 1 mg/kg intravenous) | mean plasma clearance ± S.D. ([3]; wild-type mice, 1 mg/kg intravenous) [mL/h] | apical docetaxel accumulation (basal-to-apical) [4] | increase in docetaxel clearance ([5]; CYP3A4*1B and CYP3A5*1A alleles (CYP3A4/5*2 haplotype)) [%] | docetaxel excreted in bile ([5]; humans) | docetaxel excreted in urine ([5]; humans) | difference in drug clearance amongst patients ([5]; patients receiving the same treatment regimens) | increase in odds of developing grade 4 neutropenia ([5]; with a 50% decrease in docetaxel clearance) | docetaxel transported into the apical compartment ([6]; 0.5h up to 3h, 0.1 μM) | intracellular docetaxel ([6]; all time points) | docetaxel transported into the apical compartment ([7]; 0.5h up to 3h, 0.1 μM) | intracellular docetaxel ([7]; all time points) | Vmax [8] [pmol/mg/min] | Km [9] [µM] | Vmax [9] [pmol/mg/min]
1 | CC(=O)O[C@@]12CO[C@@H]1C[C@H](O)[C@@]1(C)C(=O)[C@H](O)C3=C(C)[C@@H](OC(=O)[C@H](O)[C@@H](NC(=O)OC(C)(C)C)c4ccccc4)C[C@@](O)([C@@H](OC(=O)c4ccccc4)[C@H]21)C3(C)C [docetaxel] | similar | 14 ± 6.5 | 83 | 1.22 ± 0.583 | no significant difference | 473 ± 124 | significantly higher | 64 | ~ 75% | ~ 5% | up to 10 fold | more than 4 fold | significantly higher | significantly lower | significantly higher | significantly lower | 480 ± 90 |  | 
2 | B1 |  |  |  |  |  |  |  |  |  |  |  |  |  |  |  |  |  | 20.8 ± 7.4 | 1548 ± 186
